Literature values in patent publication US20160367580A1, “IMPROVED EXTENDED-ACTION TILMICOSIN AND USE THEREOF IN TREATMENT OF BOVINE RESPIRATORY DISEASE COMPLEX (BRD) AND IN DRY COW PERIOD” (UNIVERSIDAD NACIONAL AUTONOMA DE MEXICO, priority 2014, published 2016).

How the values were obtained:
Staphylococcus aureus = conditions: most of Staphylococcus aureus
[1] = in vivo

For `CC[C@H]1OC(=O)C[C@@H](O)[C@H](C)[C@@H](O[C@@H]2O[C@H](C)[C@@H](O)[C@H](N(C)C)[C@H]2O)[C@@H](CCN2C[C@H](C)C[C@H](C)C2)C[C@@H](C)C(=O)/C=C/C(C)=C/[C@@H]1CO[C@@H]1O[C@H](C)[C@@H](O)[C@@H](OC)[C@H]1OC` [tilmicosin], the CMI value (Staphylococcus aureus) is given as under 1.0 µg/mL and the “plasma concentration not to be exceeded (cardiotoxicity with tachycardia)” value [1] is given as at most 4000 ng/mL.
